Source: US12440476B2, “Agents that target telomerase reverse transcriptase (TERT) for treating cancer and sensitizing cancer cells to genotoxic therapy” (Northwestern University, priority 2022, dated 2025)

Experiments:
CT26 cells = assay: Clonogenic survival after irradiation (radiosensitivity); type: cell-based, mouse
Protocol: To assess radiosensitivity, MCF7, Saos-2, or CT26 cells were seeded in 6-well plates at 100 cells per well in triplicate, allowed to attach overnight and treated with DMSO or TERT inhibitors at subtoxic concentrations for 1 h prior to IR. MCF7 cells were treated with 0.5 μM NU-1, 10 μM BIBR 1532, or 1 μM MST-312, Saos-2 cells with 1 μM NU-1 or 20 μM BIBR 1532 and CT26 cells with 1 μM NU-1, 20 μM BIBR 1532 or 2 μM MST-312. Doses of 0, 1, 2, 3, 4, or 5 Gy were applied using a GammaCell ^60Co γ-ray source (Nordion) at a dose rate of 7.09 cGy/sec. After that MCF7 and Saos-2 cells were cultured for 3 weeks and CT26 for 2 weeks, then fixed and stained with crystal violet. Colonies of at least 50 cells were counted. Data from three independent biological replicates were acquired. The surviving fraction (SF) was calculated using the following formula: […]

Tolerability in mice = type: in vivo; details: BALB/c mice
CT26 subcutaneous tumors = assay: Subcutaneous CT26 tumor growth, NU-1 with or without 10 Gy; type: in vivo, BALB/c mice
Protocol: For tumor inoculation, 7-9 week BALB/c mice or NSG mice were subcutaneously injected in the flank with 0.5×10^6 CT26 cells in 100 μL PBS. On Day 9 (tumor average volume ˜30 mm^3), the tumor bearing BALB/c mice were randomly divided into 4 groups of 8, while the NSG mice were randomly divided into 2 groups of 5-6. For NU-1 treatment, 10 mg/kg of NU-1 in 100 μL PBS was injected intraperitoneally once on each of the 2 days before, the day of and 2 days after irradiation. Mouse weight was measured before treatment. Tumor irradiation was conducted on Day 11 using a RadSource RS-2000 X-Ray generator operating at 160 kV and 25 mA at 10 Gy, calibrated by NIST traceable dosimetry. From Day 7 after tumor inoculation, tumors were measured by calipers every 2-3 days and volume calculated using the formula: Tumor volume (mm^3)=length (mm)×width (mm)×width (mm)[…]. On Day 18 after tumor inoculation, tumors from 3 mice under each treatment condition were collected for histology analysis. The rest of the mice were continuously maintained and recorded until at least Day 28 or reaching the humane endpoint for tumor volume. No animals that formed tumors after injection with CT26 cells were excluded from any studies reported here.
CT26 tumors were collected 5 days after treatment (Day 18 after tumor inoculation) and fixed in 10% neutral formalin for 24 h. Formaldehyde-fixed paraffin-embedded (FFPE) tumors were sectioned and stained with hematoxylin and eosin (H&E) by the Human Tissue Resource Center at The University of Chicago. To perform immunofluorescence analysis, tumor sections were deparaffinized in xylene for 10 min, then rehydrated with 95%, 70%, 50%, and 0% ethanol for 5 min each. After that, the tumor section was immersed in 10 mM sodium citrate buffer (pH 6.0) for 30 min at 90° C. for antigen retrieval. Then the tumor sections were blocked in 5% BSA-TBS, stained with anti-Ki67 (1:1000), anti-γH2AX (1:500), anti-CD45 (1:500), anti-CD11c (1:250), anti-CD8 (1:250), anti-granzyme B (1:250) and anti-PD-L1 primary antibodies diluted in 5% BSA-TBS at 4° C. overnight. Followed by washing with TBST, tumor sections were stained with fluorophore-conjugated secondary antibodies (1:2000, Vector Labs) and DAPI (1 μg/mL) diluted in 5% BSA-TBS for 90 min at room temperature. The H&E stained tissue sections were scanned using an Olympus VS200 SlideView Whole Slide Scanner. The fluorescent tumor sections were imaged using a 3i Marianas Spinning Disk Confocal with a 20× objective and pseudo-colored using Fiji. Detailed primary antibody information is provided in Key resources table.

CD8+ T cells = assay: In vitro T cell priming assay (CFSE dilution); type: cell-based, mouse; details: DCs stimulated by inhibitor treated and irradiated (10 Gy) CT26 cells; 5 days; NU-1 1 μM, MST 2 μM
Protocol: To evaluate effects of TERT on tumor immunogenicity, CT26 cells were seeded at […] per well in 12-well plates, allowed to attach overnight, and then treated with DMSO, NU-1 (1 μM), or MST-312 (2 μM) for 1 h, followed by 0 or 10 Gy. 5 days after IR, the media were removed, cells washed with PBS, and fresh immune cell culture medium added. CT26 cells were then cultured overnight, followed by coculturing with immature BMDCs for 12-16 h at a 1:2 ratio. After coculture, the suspension BMDCs were collected into round bottom FACS tubes, washed with PBS, and stained with Zombie yellow (1:1000, BioLegend) for 10 min at room temperature. […] After PBS washing, cells were resuspended in 300 μL Cell Staining Buffer and analyzed using a BD Fortessa 4-15 HTS Flow cytometer within 2 hours. Data were then analyzed by FlowJo software. […]
Splenocytes isolated from CT26 immunized mice were stained with 0.5 μM carboxyfluorescein succinimidyl ester (CFSE) (Thermo Fisher Scientific, Cat #C34554) for 10 min at room temperature (Quah et al., 2007). […] Cells were analyzed using a BD Fortessa 4-15 HTS flow cytometer and FlowJo software. […]

A549 cells = details: cited from earlier work
[1] = IR + NU-1, tumors removed on Day 18

C=C1C(=O)[C@](C)(C(=O)OC)[C@H](CCc2cn(Cc3ccc(F)cc3F)nn2)O[C@@H]1C [NU-1]
Sensitization of CT26 cells to radiation (CT26 cells; CT26, non-toxic doses): sensitized CT26 cells to radiation | Mean SF2 (surviving fraction at 2 Gy) (CT26 cells; CT26 cells, NU-1 1 μM, BIBR 1532 20 μM, MST-312 2 μM for 1 h prior to IR, 2 Gy): 0.322 | Tolerability in mice (Tolerability in mice): well-tolerated | Effect on tumor growth, NU-1 alone (CT26 subcutaneous tumors; 10 mg/kg IP daily Days 9 to 13, no IR): no appreciable effect | Tumors eliminated within two weeks after treatment (CT26 subcutaneous tumors; IR (10 Gy, Day 11) + NU-1 10 mg/kg IP Days 9 to 13): 7 of 8 | Tumor immune infiltration (CT26 subcutaneous tumors; IR + NU-1, Day 18 tumor sections): markedly higher tumor immune infiltration | Tumor recurrence after clearance (CT26 subcutaneous tumors; IR + NU-1, followed 54 days): did not recur | Ki-67 expression in tumors vs IR alone (CT26 subcutaneous tumors; [1]): lower expression of proliferation marker Ki-67 | Persistent γH2AX in tumors vs IR alone (CT26 subcutaneous tumors; [1]): upregulation of persistent γH2AX | PD-L1 in tumors (CT26 subcutaneous tumors; IR + NU-1 vs IR alone): less increase in PD-L1 | Proliferating CD8+ T cells (CD8+ T cells): 33.5% | LD50 (A549 cells): 35 µM
